Reference: patent US20120122780A1 (Ardea Biosciences Inc., priority 2009, published 2012)

target: T1, hURAT1 Transporter (Homo sapiens, UniProt Q96S37); experiment: Uric Acid Uptake Assay (URAT-1 EC50); type: cell-based; details: HEK293/urat1 cells, C14 uric acid 40 μM, 10 minutes at room temperature
T1 construct: Full-length human URAT1 gene (SLC22Al2) was subcloned from plasmid pCMV6-XL5 (Origene) into eukaryotic expression plasmid pCMV6/Neo; expressed in transfected cells
T1 sequence (Q96S37 1-553): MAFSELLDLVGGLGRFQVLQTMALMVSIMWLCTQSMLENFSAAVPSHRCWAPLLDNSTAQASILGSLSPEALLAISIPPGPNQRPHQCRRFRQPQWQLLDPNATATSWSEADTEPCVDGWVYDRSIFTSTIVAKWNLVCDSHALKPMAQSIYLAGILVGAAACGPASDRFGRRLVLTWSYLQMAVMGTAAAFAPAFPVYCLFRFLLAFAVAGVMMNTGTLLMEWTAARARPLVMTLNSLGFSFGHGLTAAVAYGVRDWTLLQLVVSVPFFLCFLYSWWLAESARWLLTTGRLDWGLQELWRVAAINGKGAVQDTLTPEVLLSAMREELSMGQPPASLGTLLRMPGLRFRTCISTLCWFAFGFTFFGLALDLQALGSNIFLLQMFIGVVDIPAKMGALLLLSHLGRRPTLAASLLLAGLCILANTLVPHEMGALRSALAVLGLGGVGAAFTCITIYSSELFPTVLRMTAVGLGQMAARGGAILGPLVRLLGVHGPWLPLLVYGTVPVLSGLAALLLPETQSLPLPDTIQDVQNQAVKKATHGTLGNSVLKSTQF
Excerpt: Creation of Stable Cell Lines Expressing hURAT1 Transporter: Full-length human URAT1 gene (SLC22Al2) was subcloned from plasmid pCMV6-XL5 (Origene) into eukaryotic expression plasmid pCMV6/Neo (Origene) using Not I restriction sites. Gene sequencing confirmed the sequence of hURAT1 as outlined in Genbank (Accession #NM_144585.2). HEK293 human embryonic kidney cells (ATCC# CRL-1573) were propagated in EMEM tissue culture medium as described by ATCC in an atmosphere of 5% CO2 and 95% air. Transfections of HEK293 cells with the pCMV6/Neo/URAT1 construct were performed using L2000 transfection reagent (Invitrogen) as described by the manufacturer. After 24 h the transfected cells were split into 10 cm tissue culture plates and grown for 1 day after which the medium was replaced with fresh growth medium containing G418 (Gibco) at 0.5 mg/ml final concentration. Drug-resistant colonies were selected after approximately 8 days and then tested for ^14C-uric acid transport activity. The HEK293/urat1 cells are plated on Poly-D-Lysine Coated 96-well Plates at a density of 75,000 cells per well. Cells were grown overnight (20-26 hours) at 37° C. in an incubator. Plates were allowed to come to room temperature and media was washed out with one wash of 250 μl of Wash Buffer (125 mM Na Gluconate, 10 mM Hepes ph 7.3). Compound or vehicle is added in assay buffer with C14 Uric Acid for a final concentration of 40 μM Uric Acid with a specific activity of 54 mCi/mmol Assay Buffer is 125 mM Sodium Gluconate, 4.8 mM Potassium Gluconate, 1.2 mM Potassium phosphate, monobasic, 1.2 mM magnesium sulfate, 1.3 mM Ca Gluconate, 5.6 mM Glucose, 25 mM HEPES, pH 7.3. Plates were incubated at room temperature for 10 minutes then washed 3 times with 50 μWash Buffer and 3 times with 250 μl Wash Buffer. Microscint 20 Scintillation Fluid was added and plates were incubated overnight at 45° C. to equilibrate. Plates are then read on the TopCount Plate Reader and an EC50 value generated. (See Enomoto et al, Nature, 2002, 417, 447-451 and Anzai et al, J. Biol. Chem., 2004, 279, 45942-45950.)
Compounds prepared as described above, were examined according to the procedure described herein and EC50 values generated. The table below summarizes the activity of the compounds in the Uric Acid Uptake Assay, wherein

First: CCOC(=O)CSc1nnnn1-c1cccc2ccccc12 [6-1 (step C), Ethyl 2-(1-(naphthalen-1-yl)-1H-tetrazol-5-ylthio) acetate]
Second: O=C(O)CSc1nnnn1-c1cccc2ccccc12 [6-1 (step D), 2-(1-(naphthalen-1-yl)-1H-tetrazol-5-ylthio)acetic acid]
The EC50 of the first is lower: 5 to 20 µM for the first, over 20 µM for the second.

O=C(O)CSc1cnnn1-c1cccc2ccccc12 [Example 5A-1] and CC(C)(Oc1nnnn1-c1cccc2ccccc12)C(=O)O [Example 6-3] cannot be ordered by EC50: over 20 µM for the first, over 20 µM for the second.
